This data set in a line: activity coefficient (dimensionless); of the first substance listed, at infinite dilution; xn = mol fraction of the nth substance listed. Particulars: 101.33 kPa, Liquid, Chromatography, x1 = 0.

± gives the expanded uncertainty stated by the source.

On to `Cc1ccccc1C` [1,2-dimethylbenzene] + N#C[N-]C#N.OCCC[n+]1ccccc1, for which the activity coefficient was determined as 11.1 ± 0.8 (318.15 K); 11.5 ± 0.8 (328.15 K); 11.9 ± 0.8 (338.15 K); 12.3 ± 0.8 (348.15 K); 12.7 ± 0.9 (358.15 K); 13 ± 0.9 (368.15 K).

As to `Cc1cccc(C)c1` [1,3-dimethylbenzene] + N#C[N-]C#N.OCCC[n+]1ccccc1, the activity coefficient reads like this: (318.15 K) 14.4 ± 1; (328.15 K) 14.8 ± 1; (338.15 K) 15.3 ± 1; (348.15 K) 15.7 ± 1.1; (358.15 K) 16.1 ± 1.1; (368.15 K) 16.5 ± 1.1.

In the case of `Cc1ccc(C)cc1` [1,4-dimethylbenzene] + N#C[N-]C#N.OCCC[n+]1ccccc1, the activity coefficient is, setting by setting: (318.15 K) 13.8 ± 0.9; (328.15 K) 14.3 ± 1; (338.15 K) 14.8 ± 1; (348.15 K) 15.3 ± 1; (358.15 K) 15.7 ± 1.1; (368.15 K) 16.2 ± 1.1.

`C1COCCO1` [1,4-dioxane] + N#C[N-]C#N.OCCC[n+]1ccccc1: the activity coefficient amounted to 1.74 ± 0.12 (318.15 K); 1.86 ± 0.13 (328.15 K); 1.99 ± 0.14 (338.15 K); 2.12 ± 0.14 (348.15 K); 2.25 ± 0.15 (358.15 K); 2.38 ± 0.16 (368.15 K).

For the compound `C=CCCCCCCCC` [1-decene] + N#C[N-]C#N.OCCC[n+]1ccccc1, the activity coefficient was determined as 1030 ± 71 (298.15 K); 954 ± 66 (308.15 K); 887 ± 61 (318.15 K); 829 ± 57 (328.15 K); 777 ± 54 (338.15 K); 731 ± 50 (348.15 K). Moreover, the activity coefficient (358.15 K) was 691 ± 48.

On to `C=CCCCCC` [1-heptene] + N#C[N-]C#N.OCCC[n+]1ccccc1, for which the activity coefficient by setting is: (298.15 K) 223 ± 15; (308.15 K) 211 ± 15; (318.15 K) 200 ± 14; (328.15 K) 190 ± 13; (338.15 K) 182 ± 13; (348.15 K) 174 ± 12. Further, the activity coefficient (358.15 K) stood at 167 ± 11.

In the case of `C#CCCCCC` [1-heptyne] + N#C[N-]C#N.OCCC[n+]1ccccc1, the activity coefficient reads like this: (298.15 K) 35.7 ± 2.4; (308.15 K) 36.5 ± 2.5; (318.15 K) 37.4 ± 2.6; (328.15 K) 38.2 ± 2.6; (338.15 K) 39 ± 2.7; (348.15 K) 39.7 ± 2.7. Further, the activity coefficient (358.15 K) amounted to 40.4 ± 2.8.

Turning to `C#CCCCC` [1-hexyne] + N#C[N-]C#N.OCCC[n+]1ccccc1, the activity coefficient is, setting by setting: (298.15 K) 19.8 ± 1.4; (308.15 K) 20.6 ± 1.4; (318.15 K) 21.5 ± 1.5; (328.15 K) 22.5 ± 1.5; (338.15 K) 23.4 ± 1.6; (348.15 K) 24.3 ± 1.7. Moreover, the activity coefficient (358.15 K) is 25.2 ± 1.7.

With `CCC[N+](=O)[O-]` [1-nitropropane] + N#C[N-]C#N.OCCC[n+]1ccccc1, the activity coefficient was found to be 2.96 ± 0.2 (318.15 K); 3.08 ± 0.21 (328.15 K); 3.18 ± 0.22 (338.15 K); 3.28 ± 0.22 (348.15 K); 3.37 ± 0.23 (358.15 K); 3.47 ± 0.24 (368.15 K).

Consider `C#CCCCCCC` [1-octyne] + N#C[N-]C#N.OCCC[n+]1ccccc1, for which the activity coefficient reads like this: (298.15 K) 67.5 ± 4.6; (308.15 K) 68.5 ± 4.7; (318.15 K) 69.4 ± 4.8; (328.15 K) 70.2 ± 4.8; (338.15 K) 71.1 ± 4.9; (348.15 K) 71.8 ± 4.9. Moreover, for the setting “358.15 K”, the activity coefficient amounted to 72.6 ± 5.

As to `C=CCCC` [1-pentene] + N#C[N-]C#N.OCCC[n+]1ccccc1, the activity coefficient runs as follows: (298.15 K) 74.6 ± 5.1; (308.15 K) 70.2 ± 4.8; (318.15 K) 66.3 ± 4.5; (328.15 K) 63.1 ± 4.3.

For `C#CCCC` [1-pentyne] + N#C[N-]C#N.OCCC[n+]1ccccc1, the activity coefficient was 11.1 ± 0.8 (298.15 K); 11.6 ± 0.8 (308.15 K); 12.1 ± 0.8 (318.15 K); 12.6 ± 0.9 (328.15 K); 13.1 ± 0.9 (338.15 K); 13.5 ± 0.9 (348.15 K). For the same compound, for the setting “358.15 K”, the activity coefficient came to 14 ± 1.

Take `CC(C)CC(C)(C)C` [2,2,4-trimethylpentane] + N#C[N-]C#N.OCCC[n+]1ccccc1: the activity coefficient came out at 800 ± 55 (298.15 K), 714 ± 49 (308.15 K), 640 ± 44 (318.15 K) and 579 ± 40 (328.15 K).

On to `CCOC(C)(C)C` [2-ethoxy-2-methylpropane] + N#C[N-]C#N.OCCC[n+]1ccccc1, for which the activity coefficient was found to be 85.6 ± 5.9 (318.15 K); 83.9 ± 5.8 (328.15 K); 82.4 ± 5.6 (338.15 K); 80.7 ± 5.5 (348.15 K); 79.1 ± 5.4 (358.15 K); 77.9 ± 5.3 (368.15 K).

As to `CCC(C)(C)OC` [2-methoxy-2-methylbutane] + N#C[N-]C#N.OCCC[n+]1ccccc1, the activity coefficient reads like this: (318.15 K) 41.8 ± 2.9; (328.15 K) 42 ± 2.9; (338.15 K) 42.1 ± 2.9; (348.15 K) 42.3 ± 2.9; (358.15 K) 42.5 ± 2.9; (368.15 K) 42.6 ± 2.9.

With `COC(C)(C)C` [2-methoxy-2-methylpropane] + N#C[N-]C#N.OCCC[n+]1ccccc1, the activity coefficient (318.15 K) was 25.1 ± 1.7; the activity coefficient (328.15 K) is 25.5 ± 1.7; the activity coefficient (338.15 K) came to 25.9 ± 1.8; the activity coefficient (348.15 K) is 26.2 ± 1.8; the activity coefficient (358.15 K) is 26.6 ± 1.8; the activity coefficient (368.15 K) came out at 26.9 ± 1.8.

With `CC(C)CO` [2-methyl-1-propanol] + N#C[N-]C#N.OCCC[n+]1ccccc1, the activity coefficient is, setting by setting: (318.15 K) 3.31 ± 0.23; (328.15 K) 3.26 ± 0.22; (338.15 K) 3.2 ± 0.22; (348.15 K) 3.15 ± 0.21; (358.15 K) 3.11 ± 0.21; (368.15 K) 3.06 ± 0.21.

Regarding `CC(C)(C)O` [2-methylpropan-2-ol] + N#C[N-]C#N.OCCC[n+]1ccccc1, the activity coefficient by setting is: (318.15 K) 3.08 ± 0.21; (328.15 K) 3.08 ± 0.21; (338.15 K) 3.07 ± 0.21; (348.15 K) 3.07 ± 0.21; (358.15 K) 3.07 ± 0.21; (368.15 K) 3.05 ± 0.21.

With `CCC(C)CC` [3-methylpentane] + N#C[N-]C#N.OCCC[n+]1ccccc1, the activity coefficient came to 321 ± 22 (298.15 K), 302 ± 21 (308.15 K), 286 ± 20 (318.15 K) and 272 ± 19 (328.15 K).

For the compound `C=C(C)c1ccccc1` [(1-methylethenyl)benzene] + N#C[N-]C#N.OCCC[n+]1ccccc1, the activity coefficient came out at 11.3 ± 0.8 (318.15 K); 12 ± 0.8 (328.15 K); 12.7 ± 0.9 (338.15 K); 13.3 ± 0.9 (348.15 K); 14 ± 1 (358.15 K); 14.6 ± 1 (368.15 K).

Regarding `CC(C)=O` [acetone] + N#C[N-]C#N.OCCC[n+]1ccccc1, the activity coefficient is, setting by setting: (318.15 K) 1.87 ± 0.13; (328.15 K) 1.97 ± 0.13; (338.15 K) 2.05 ± 0.14; (348.15 K) 2.14 ± 0.15; (358.15 K) 2.23 ± 0.15; (368.15 K) 2.31 ± 0.16.

Take `CC#N` [acetonitrile] + N#C[N-]C#N.OCCC[n+]1ccccc1: the activity coefficient by setting is: (318.15 K) 1.24 ± 0.08; (328.15 K) 1.29 ± 0.08; (338.15 K) 1.34 ± 0.09; (348.15 K) 1.38 ± 0.09; (358.15 K) 1.43 ± 0.09; (368.15 K) 1.48 ± 0.1.

Turning to `c1ccccc1` [benzene] + N#C[N-]C#N.OCCC[n+]1ccccc1, the activity coefficient (318.15 K) was 5.02 ± 0.34; the activity coefficient (328.15 K) was found to be 5.18 ± 0.35; the activity coefficient (338.15 K) came to 5.36 ± 0.37; the activity coefficient (348.15 K) was found to be 5.53 ± 0.38; the activity coefficient (358.15 K) came to 5.69 ± 0.39; the activity coefficient (368.15 K) was 5.85 ± 0.4.

For the compound `CCCCO` [butan-1-ol] + N#C[N-]C#N.OCCC[n+]1ccccc1, the activity coefficient was found to be 3.29 ± 0.22 (318.15 K); 3.23 ± 0.22 (328.15 K); 3.18 ± 0.22 (338.15 K); 3.13 ± 0.21 (348.15 K); 3.09 ± 0.21 (358.15 K); 3.05 ± 0.21 (368.15 K).

(Values after the NIST ThermoML archive (doi:10.1016/j.jct.2017.03.004).)
